How the values were obtained:
fibronectin and α-SMA = assay: Fibronectin/α-SMA protein expression in TGF-β1-stimulated MRC-5 cells after small RNA delivered by lipid or bencaosome (Western blot); assay type: cell-based, human; details: Examples 5 and 8; nucleic acid 400 nM; TGF-β1 3 ng/mL, 72 hours
A549 cells [1] = assay: RT-qPCR detection of nucleic acid delivered by lipid into A549 cells; assay type: cell-based, human; details: HJT-sRNA-m7 double-stranded RNA, reverse evaporation method
A549 cells [2] = assay: Confocal fluorescence microscopy of lipid-delivered nucleic acid in A549 cells; assay type: cell-based, human; details: boiling method; 6 hours
Description: (§1) […] Then the mixture was dropped into A549 cells, and after 6 hours of co-incubation, the samples were washed three times with PBS, fixed with 4% paraformaldehyde, washed three times with PBS, stained with Alexa Fluor® 488 phalloidin for 30 min, washed 3 times with PBS, and stained with DAPI for 5 min, washed with PBS, and then sealed.
as §1, with “Then,” for “Then”, “PBS washed,” for “washed with PBS,”

A549 cells [3] = assay: Digital PCR (ddPCR) detection of nucleic acid delivery by lipid into A549 cells; assay type: cell-based, human; details: single lipid; boiling or reverse evaporation method
Description: Referring to the QX200 Droplet Reader and QuantaSoft Software manual for the protocols, the results were analyzed using QuantaSoft software.
2.2 Experimental method: total RNA was collected and extracted by TRIzol lysis buffer according to the above method, and reverse transcribed to cDNA using High capacity cRNA Reverse Transcription Kit, and the cDNA from different groups was subjected to digital PCR reaction.
2.2 Experimental method: Total RNA was collected and extracted by TRIzol lysis buffer according to the above method, and reverse transcribed to cDNA using TaqMan™ MicroRNA Reverse Transcription KitHigh, and the cDNA from different groups was subjected to digital PCR reaction.
2.2 Experimental method: Total RNA was collected and extracted by TRIzol lysis buffer according to the above method, and reversed to cDNA using High capacity CRNA Reverse Transcription Kit, and the cDNA from different groups was subjected to digital PCR reaction.

A549 cells [4] = assay: Flow cytometry of green fluorescent protein delivered by lipid into A549 cells; assay type: cell-based, human; details: 10 μg/mL lipid; reverse evaporation method; 6 hours
Description: (§2) Experimental method: The bencaosome was prepared by reverse evaporation of ether. 0.2 nmol green fluorescent protein dissolved in 20 μl water was added to 100 μl ether solutions containing 0 μg, 1 μg, 3 μg lipid respectively. After fully mixing, sonication was conducted for 3 min. After evaporation at 60° C. to remove organic solvent, the bencaosome solution was obtained by hydrating with 100 μL opti-MEM. Then the bencaosome was added to A549 cells and co-incubated for 6 hours. The samples were collected and tested. After washing three times with PBS, the samples were digested with trypsin for three minutes. The trypsin was removed, and then the samples were washed with PBS and blown off. Accuri® C6 instrument was used to measure.
as §2, with “method.” for “of ether.”, “The trypsin was removed, and then the samples were washed with PBS and blown off. Accuri® C6 instrument was used to measure.” left out

A549 cells [5] = assay: Confocal fluorescence microscopy of green fluorescent protein delivered by lipid into A549 cells; assay type: cell-based, human; details: reverse evaporation method; 6 hours
Description: Experimental method: The bencaosome was prepared by reverse evaporation method. 0.2 nmol green fluorescent protein dissolved in 20 μl water was added to 100 μl ether solutions containing 0 μg, 0.25 μg, 0.75 μg lipid respectively. After fully mixing, sonication was conducted for 3 min. After evaporated at 60° C. to remove organic solvent, the bencaosome solution was obtained by hydrating with 100 μL opti-MEM. Then the bencaosome was added to A549 cells and co-incubated for 6 hours. The samples were collected and tested. After washing three times with PBS, the samples were fixed with 4% paraformaldehyde. After washing three times with PBS, the samples were stained with Alexa Fluor® 488 phalloidin for 30 min. After washing three times with PBS, the samples were stained with Dapi for 5 min, then washed with PBS and sealed for observation.

[6] = In vivo delivery of small RNA into mouse blood, stomach, small intestine and liver via gavage (RT-qPCR); details: Example 11; 10 μL single lipid + sRNA 1 nmol each, heating method; 12 hours
Description: [Experimental method] 6-8 weeks old mice, 22-24 g, were raised in SPF room of the Animal Center of the Institute of Basic Medical Sciences of Chinese Academy of Medical Sciences. The mice were fasted for 12 hours before intragastric administration. The mice were randomly divided into 3 groups: (1) control group, 400 μl DEPC-treated water, intragastric administration; (2) free uptake group, small RNA (PGY-sRNA-26, PGY-sRNA-32 and PGY-sRNA-23), each small RNA 1 nmol/animal, dissolved in 400 μl DEPC-treated water, intragastric administration; (3) lipid No. 41 group: a mixture of small RNA (PGY-sRNA-26 and PGY-sRNA-32) and lipid No. 41 prepared by heating method was intragastrically administered, each small RNA 1 nmol/animal, lipid No. 41 10 μl/animal, dissolved in 400 μl DEPC-treated water. All tissue and organ samples were collected after 6 hours of intragastric administration. All small RNAs were single-stranded RNA modified by 3p-terminal 2-O-methylation.
After 12 hours, the sample was collected to detect the amount of entry. In Vivo Delivery Experiment of Lipid Nucleic Acid Mixture • 1. […] LightCycler 480 fluorescence quantitative PCR instrument was used, and the PCR reaction conditions were: 95° C., 5 min for pre-denaturation, followed by the PCR amplification cycle: (1) 95° C., 10 s; (2) 55° C., 10 s; (3) 72° C., 20 s; a total of 40 cycles; 40° C. for 10 s in the end to cool down. […]

Compound: CCCCCCCC/C=C\CCCCCCCCCCCC(=O)O[C@H](COC(=O)CCCCCCCCCCCCCCC)COP(=O)(O)OCCN [lipid No. 40, PE(16:0/22:1)]
- inhibition by HJT small RNA at protein level in MRC-5 cells (Western blot) (fibronectin and α-SMA): mediated anti-fibrotic double-stranded RNA HJT-sRNA-m7 entry into MRC-5 cells to down-regulate fibronectin protein expression
- delivery effect of lipid compared with RNAiMAX (RT-qPCR) (A549 cells [1]): ½
- entry of PGY-sRNA-6-Cy3 into A549 cells (confocal microscopy) (A549 cells [2]): could effectively deliver single-stranded RNA into A549 cells
- delivery of HJT-sRNA-m7 dsRNA into A549 cells (ddPCR) (A549 cells [3]): could effectively deliver HJT-sRNA-m7 dsRNA into A549 cells
- efficiency to deliver green fluorescent protein into A549 cells (A549 cells [4]): 7.2%
- entry of green fluorescent protein into A549 cells (confocal microscope) (A549 cells [5]): could effectively deliver protein into A549 cells
- delivery of sRNA single-stranded nucleic acid into mouse blood via oral administration [6]: the delivery effect was better than POPC and Lipofectamine RNAiMAX

— patent US12280114B2, “Extraction of plant source “medicinal soup” and manual preparation of “herbal medicine” and related products” (BEIJING BAISHIHEKANG PHARMACEUTICAL TECHNOLOGY (BSJPHARMA) …, priority 2018, dated 2025)
